Values of other authors in US10835570B2, “Dietary supplement” (priority 2016, dated 2020).

System: receptors ERb and ERa
Conditions: oestrogen-like affinity, ERb versus ERa

O=c1c(-c2ccc(O)cc2)coc2cc(O)cc(O)c12 [genistein]
affinity greater for receptors ERb than for receptors ERa: 20 times
